# Reference: PubChem BioAssay (NCI)
#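 All cell lines were grown in 96-well plates and treated with compound for 48 hours. At the GI50, growth is halved. TGI denotes the concentration required for complete inhibition of growth.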
# Tests used:
# Assay in all cases: NCI anticancer screen, dose series, 48 h
# 786-0 renal = test system: 786-0 renal
# A498 renal = test system: A498 renal
# A549 NSCLC = test system: A549 NSCLC
# ACHN renal = test system: ACHN renal
# BT-549 breast = test system: BT-549 breast
# CAKI-1 renal = test system: CAKI-1 renal
# CCRF-CEM leukemia = test system: CCRF-CEM leukemia
# COLO 205 colon = test system: COLO 205 colon
# DU-145 prostate = test system: DU-145 prostate
# EKVX NSCLC = test system: EKVX NSCLC
# HCC-2998 colon = test system: HCC-2998 colon
# HCT-116 colon = test system: HCT-116 colon
# HCT-15 colon = test system: HCT-15 colon
# HL-60(TB) leukemia = test system: HL-60(TB) leukemia
# HOP-62 NSCLC = test system: HOP-62 NSCLC
# HOP-92 NSCLC = test system: HOP-92 NSCLC
# HS 578T breast = test system: HS 578T breast
# HT29 colon = test system: HT29 colon
# IGROV1 ovarian = test system: IGROV1 ovarian
# K-562 leukemia = test system: K-562 leukemia
# KM12 colon = test system: KM12 colon
# LOX IMVI melanoma = test system: LOX IMVI melanoma
# M14 melanoma = test system: M14 melanoma
# MALME-3M melanoma = test system: MALME-3M melanoma
# MCF7 breast = test system: MCF7 breast
# MDA-MB-231 breast = test system: MDA-MB-231 breast
# MDA-MB-435 = test system: MDA-MB-435
# MOLT-4 leukemia = test system: MOLT-4 leukemia
# NCI-H226 lung = test system: NCI-H226 lung
# NCI-H23 lung = test system: NCI-H23 lung
# NCI-H460 lung = test system: NCI-H460 lung
# NCI-H522 lung = test system: NCI-H522 lung
# NCI/ADR-RES ovarian = test system: NCI/ADR-RES ovarian
# OVCAR-3 ovarian = test system: OVCAR-3 ovarian
# OVCAR-5 ovarian = test system: OVCAR-5 ovarian
# OVCAR-8 ovarian = test system: OVCAR-8 ovarian
# PC-3 prostate = test system: PC-3 prostate
# RPMI-8226 leukemia = test system: RPMI-8226 leukemia
# RXF 393 renal = test system: RXF 393 renal
# SF-268 CNS = test system: SF-268 CNS
# SF-295 CNS = test system: SF-295 CNS
# SF-539 CNS = test system: SF-539 CNS
# SK-MEL-2 melanoma = test system: SK-MEL-2 melanoma
# SK-MEL-28 melanoma = test system: SK-MEL-28 melanoma
# SK-MEL-5 melanoma = test system: SK-MEL-5 melanoma
# SN12C renal = test system: SN12C renal
# SNB-19 CNS = test system: SNB-19 CNS
# SNB-75 CNS = test system: SNB-75 CNS
# SR leukemia = test system: SR leukemia
# SW-620 colon = test system: SW-620 colon
# T-47D breast = test system: T-47D breast
# TK-10 renal = test system: TK-10 renal
# U251 CNS = test system: U251 CNS
# UACC-257 melanoma = test system: UACC-257 melanoma
# UACC-62 melanoma = test system: UACC-62 melanoma
# UO-31 renal = test system: UO-31 renal
compound,measurement,setting,value
Cl.Fc1c[c-]c(-c2ccccn2)c(F)c1.[Pt].c1ccc(P(c2ccccc2)C([PH+](c2ccccc2)c2ccccc2)[PH+](c2ccccc2)c2ccccc2)cc1,GI50,786-0 renal,3.34 µM
same,TGI,786-0 renal,20.6 µM
same,GI50,A498 renal,2.59 µM
same,TGI,A498 renal,7.47 µM
same,GI50,A549 NSCLC,2.84 µM
same,TGI,A549 NSCLC,20.7 µM
same,GI50,ACHN renal,3.05 µM
same,TGI,ACHN renal,> 100 µM
same,GI50,BT-549 breast,3.24 µM
same,TGI,BT-549 breast,17.1 µM
same,GI50,CAKI-1 renal,2.19 µM
same,TGI,CAKI-1 renal,7.41 µM
same,GI50,CCRF-CEM leukemia,3.26 µM
same,TGI,CCRF-CEM leukemia,> 100 µM
same,GI50,COLO 205 colon,1.87 µM
same,TGI,COLO 205 colon,3.92 µM
same,GI50,DU-145 prostate,3.57 µM
same,TGI,DU-145 prostate,20.1 µM
same,GI50,EKVX NSCLC,3.1 µM
same,TGI,EKVX NSCLC,> 100 µM
same,GI50,HCC-2998 colon,4.43 µM
same,TGI,HCC-2998 colon,29.6 µM
same,GI50,HCT-116 colon,2.72 µM
same,TGI,HCT-116 colon,12.3 µM
same,GI50,HCT-15 colon,6.88 µM
same,TGI,HCT-15 colon,> 100 µM
same,GI50,HL-60(TB) leukemia,1.95 µM
same,TGI,HL-60(TB) leukemia,6.07 µM
same,GI50,HOP-62 NSCLC,2.63 µM
same,TGI,HOP-62 NSCLC,9.78 µM
same,GI50,HOP-92 NSCLC,1.7 µM
same,TGI,HOP-92 NSCLC,5.62 µM
same,GI50,HS 578T breast,2.92 µM
same,TGI,HS 578T breast,39 µM
same,GI50,HT29 colon,3.23 µM
same,TGI,HT29 colon,21.6 µM
same,GI50,IGROV1 ovarian,3.16 µM
same,TGI,IGROV1 ovarian,> 100 µM
same,GI50,K-562 leukemia,2.44 µM
same,TGI,K-562 leukemia,> 100 µM
same,GI50,KM12 colon,3.55 µM
same,TGI,KM12 colon,14.7 µM
same,GI50,LOX IMVI melanoma,3.35 µM
same,TGI,LOX IMVI melanoma,13.5 µM
same,GI50,M14 melanoma,3.13 µM
same,TGI,M14 melanoma,53 µM
same,GI50,MALME-3M melanoma,2.5 µM
same,TGI,MALME-3M melanoma,7.3 µM
same,GI50,MCF7 breast,2.95 µM
same,TGI,MCF7 breast,> 100 µM
same,GI50,MDA-MB-231 breast,2.28 µM
same,TGI,MDA-MB-231 breast,7.06 µM
same,GI50,MDA-MB-435,3.4 µM
same,TGI,MDA-MB-435,16 µM
same,GI50,MOLT-4 leukemia,2.54 µM
same,TGI,MOLT-4 leukemia,> 100 µM
same,GI50,NCI-H226 lung,2.78 µM
same,TGI,NCI-H226 lung,32.8 µM
same,GI50,NCI-H23 lung,3.06 µM
same,TGI,NCI-H23 lung,61.1 µM
same,GI50,NCI-H460 lung,3.08 µM
same,TGI,NCI-H460 lung,11.5 µM
same,GI50,NCI-H522 lung,2.62 µM
same,TGI,NCI-H522 lung,9.86 µM
same,GI50,NCI/ADR-RES ovarian,34.9 µM
same,TGI,NCI/ADR-RES ovarian,> 100 µM
same,GI50,OVCAR-3 ovarian,2.68 µM
same,TGI,OVCAR-3 ovarian,8.06 µM
same,GI50,OVCAR-5 ovarian,2.97 µM
same,TGI,OVCAR-5 ovarian,> 100 µM
same,GI50,OVCAR-8 ovarian,2.83 µM
same,TGI,OVCAR-8 ovarian,38.5 µM
same,GI50,PC-3 prostate,2.17 µM
same,TGI,PC-3 prostate,> 100 µM
same,GI50,RPMI-8226 leukemia,1.68 µM
same,TGI,RPMI-8226 leukemia,5.51 µM
same,GI50,RXF 393 renal,3.09 µM
same,TGI,RXF 393 renal,15.1 µM
same,GI50,SF-268 CNS,3.22 µM
same,TGI,SF-268 CNS,25.1 µM
same,GI50,SF-295 CNS,3.46 µM
same,TGI,SF-295 CNS,14.7 µM
same,GI50,SF-539 CNS,3.18 µM
same,TGI,SF-539 CNS,11.3 µM
same,GI50,SK-MEL-2 melanoma,2.54 µM
same,TGI,SK-MEL-2 melanoma,6.7 µM
same,GI50,SK-MEL-28 melanoma,5.02 µM
same,TGI,SK-MEL-28 melanoma,26.9 µM
same,GI50,SK-MEL-5 melanoma,2.08 µM
same,TGI,SK-MEL-5 melanoma,4.53 µM
same,GI50,SN12C renal,2.91 µM
same,TGI,SN12C renal,15.4 µM
same,GI50,SNB-19 CNS,4.88 µM
same,TGI,SNB-19 CNS,> 100 µM
same,GI50,SNB-75 CNS,2.01 µM
same,TGI,SNB-75 CNS,9.5 µM
same,GI50,SR leukemia,2.61 µM
same,TGI,SR leukemia,> 100 µM
same,GI50,SW-620 colon,3.19 µM
same,TGI,SW-620 colon,14.6 µM
same,GI50,T-47D breast,2.25 µM
same,TGI,T-47D breast,8.5 µM
same,GI50,TK-10 renal,2.67 µM
same,TGI,TK-10 renal,11.9 µM
same,GI50,U251 CNS,3.23 µM
same,TGI,U251 CNS,13.6 µM
same,GI50,UACC-257 melanoma,2.75 µM
same,TGI,UACC-257 melanoma,8.09 µM
same,GI50,UACC-62 melanoma,3.03 µM
same,TGI,UACC-62 melanoma,18 µM
same,GI50,UO-31 renal,2.27 µM
same,TGI,UO-31 renal,7.65 µM
